These results are taken from patent publication US7763630B2 (priority 2007, dated 2010).

Assay [1] concerns recombinant NL-Rluc virus. Kind of assay: Inhibition of HIV replication (NL-Rluc virus). It is filed as cell-based. The conditions noted are these: Human immunodeficiency virus 1, read-out: Antiviral Activity.
For the next assay, the target named is HIV-integrase (Human immunodeficiency virus type 1 group M subtype B, UniProt P12497). Kind of assay: HIV-Integrase Inhibition Activity (SPA strand transfer assay).
The next assay has as its target purified integrase (Human immunodeficiency virus type 1 group M subtype B, UniProt P12497). Kind of assay: HIV-Integrase binding assay (competition with radiolabeled compound A).

Experimental for purified integrase: HIV-Integrase binding assay. In this assay competitive binding experiments with test compounds and a radiolabeled integrase inhibitor (compound A) are performed against purified integrase. SPA bead/DNA/enzyme complexes were prepared as for the integrase inhibition assay except, to each well, 0.69 μl of integrase enzyme (0.42 mg/μl) was used per 2 μl of LTR DNA-attached scintillation proximity beads (stock 50 mg/ml). Binding reactions were carried out in 96-well white polystyrene assay plates (Corning, #3600). The following was added sequentially to each well: 20 μl of water or 20 μl of human serum (Cellgro Cat #35-060-CL), 5 μl of serially diluted compound (in 50% DMSO/50% integrase SPA buffer), 5 μl of [^3H]-compound I (6,000 cpm/μl in SPA buffer) and 20 μl of bead/DNA/enzyme complex. The plates were shaken for 2 hours and then allowed to sit at room temperature without shaking overnight. The [^3H]-compound I binding was measured using a Topcount scintillation counter. Cheng and Prusoff equations were used to convert the inhibition of compound 1 binding into the corresponding Ki value.

Consider `Cn1c(C2CCOC2)nc(C(=O)NCc2ccc(F)cc2)c(O)c1=O` (stereo not drawn) [Example 1, N-(4-Fluorobenzyl)-5-hydroxy-1-methyl-6-oxo-2-(tetrahydrofuran-3-yl)-1,6-dihydropyrimidine-4-carboxamide], for which the EC50 in assay [1] lay in the range of 3 to 100 nM. This compound also returned a concentration for half-maximal inhibition (IC50) on HIV-integrase of 2 to 100 nM.
Turning to `Cc1cc(CNC(=O)c2nc(C3CCOC3)n(C)c(=O)c2O)ccc1F` (stereo not drawn) [Example 2, N-(4-Fluoro-3-methylbenzyl)-5-hydroxy-1-methyl-6-oxo-2-(tetrahydrofuran-3-yl)-1,6-dihydropyrimidine-4-carboxamide], the EC50 in assay [1] is 3 to 100 nM. Besides, the IC50 against HIV-integrase was in the range of 2 to 100 nM.
For the compound `Cn1c(C2CCOC2)nc(C(=O)NCc2ccc(F)cc2-n2cncn2)c(O)c1=O` (stereo not drawn) [Example 3, N-(4-fluoro-2-(1H-1,2,4-triazol-1-yl)benzyl)-5-hydroxy-1-methyl-6-oxo-2-(tetrahydrofuran-3-yl)-1,6-dihydropyrimidine-4-carboxamide], in assay [1], the EC50 was in the range of 3 to 100 nM. On purified integrase, this compound came in with an inhibition constant Ki of 1 to 3 nM.
With `Cc1ncnn1-c1cc(F)ccc1CNC(=O)c1nc(C2CCOC2)n(C)c(=O)c1O` (stereo not drawn) [Example 4, N-(4-fluoro-2-(5-methyl-1H-1,2,4-triazol-1-yl)benzyl)-5-hydroxy-1-methyl-6-oxo-2-(tetrahydrofuran-3-yl)-1,6-dihydropyrimidine-4-carboxamide], the EC50 in assay [1] fell in the range of 3 to 100 nM. For the same compound, on purified integrase, the Ki is 3 to 50 nM.
As to `Cc1cnnn1-c1cc(F)ccc1CNC(=O)c1nc(C2CCOC2)n(C)c(=O)c1O` (stereo not drawn) [Example 5, N-(4-fluoro-2-(5-methyl-1H-1,2,3-triazol-1-yl)benzyl)-5-hydroxy-1-methyl-6-oxo-2-(tetrahydrofuran-3-yl)-1,6-dihydropyrimidine-4-carboxamide], the EC50 in assay [1] fell in the range of 3 to 100 nM. Besides, the Ki on purified integrase was in the range of 3 to 50 nM.
On to `Cn1ncnc1-c1cc(F)ccc1CNC(=O)c1nc(C2CCOC2)n(C)c(=O)c1O` (stereo not drawn) [Example 6, N-(4-fluoro-2-(1-methyl-1H-1,2,4-triazol-5-yl)benzyl)-5-hydroxy-1-methyl-6-oxo-2-(tetrahydrofuran-3-yl)-1,6-dihydropyrimidine-4-carboxamide], for which the EC50 in assay [1] lay in the range of 3 to 100 nM. This compound showed an inhibition constant (Ki) at purified integrase of 3 to 50 nM.
The corresponding values for `Cn1c(C2CCOC2)nc(C(=O)NCc2ccc(F)cc2S(C)(=O)=O)c(O)c1=O` (stereo not drawn) [Example 7, N-(4-fluoro-2-(methylsulfonyl)benzyl)-5-hydroxy-1-methyl-6-oxo-2-(tetrahydrofuran-3-yl)-1,6-dihydropyrimidine-4-carboxamide] are 3 to 100 nM and 3 to 50 nM.
With `Cn1c(C2CCOC2)nc(C(=O)NCc2ccccc2N2CCCCS2(=O)=O)c(O)c1=O` (stereo not drawn) [Example 8], the EC50 in assay [1] fell in the range of 3 to 100 nM. At purified integrase, this compound gave a Ki of 3 to 50 nM.
The corresponding values for `CN(C)S(=O)(=O)c1cc(F)ccc1CNC(=O)c1nc(C2CCOC2)n(C)c(=O)c1O` (stereo not drawn) [Example 10, N-(2-(N,N-dimethylsulfamoyl)-4-fluorobenzyl)-5-hydroxy-1-methyl-6-oxo-2-(tetrahydrofuran-3-yl)-1,6-dihydropyrimidine-4-carboxamide] are 3 to 100 nM and 3 to 50 nM.
The like results for `Cn1cnnc1-c1cc(F)ccc1CNC(=O)c1nc(C2CCOC2)n(C)c(=O)c1O` (stereo not drawn) [Example 11, N-(4-fluoro-2-(4-methyl-4H-1,2,4-triazol-3-yl)benzyl)-5-hydroxy-1-methyl-6-oxo-2-(tetrahydrofuran-3-yl)-1,6-dihydropyrimidine-4-carboxamide] were, in that order, 3 to 100 nM and 1 to 3 nM.
`CN1CCN(c2cc(F)ccc2CNC(=O)c2nc(C3CCOC3)n(C)c(=O)c2O)C1=O` (stereo not drawn) [Example 12, N-(4-fluoro-2-(3-methyl-2-oxoimidazolidin-1-yl)benzyl)-5-hydroxy-1-methyl-6-oxo-2-(tetrahydrofuran-3-yl)-1,6-dihydropyrimidine-4-carboxamide]: in assay [1], the EC50 lay in the range of 3 to 100 nM. In addition, on purified integrase, the inhibition constant Ki was 1 to 3 nM.
Turning to `COCCN1CCN(c2cc(F)ccc2CNC(=O)c2nc(C3CCOC3)n(C)c(=O)c2O)C1=O` (stereo not drawn) [Example 13, N-(4-fluoro-2-(3-(2-methoxyethyl)-2-oxoimidazolidin-1-yl)benzyl)-5-hydroxy-1-methyl-6-oxo-2-(tetrahydrofuran-3-yl)-1,6-dihydropyrimidine-4-carboxamide], the EC50 in assay [1] lay in the range of 3 to 100 nM. For the same compound, the inhibitory constant (Ki) at purified integrase fell in the range of 1 to 3 nM.
`Cn1c(C2CCOC2)nc(C(=O)NCc2ccc(F)cc2N2CCN(CCO)C2=O)c(O)c1=O` (stereo not drawn) [Example 14, N-(4-fluoro-2-(3-(2-hydroxyethyl)-2-oxoimidazolidin-1-yl)benzyl)-5-hydroxy-1-methyl-6-oxo-2-(tetrahydrofuran-3-yl)-1,6-dihydropyrimidine-4-carboxamide]: the EC50 in assay [1] fell in the range of 3 to 100 nM. The inhibitory constant (Ki) at purified integrase lay in the range of 1 to 3 nM.
As to `Cn1c(C2COCC2O)nc(C(=O)NCc2ccc(F)cc2)c(O)c1=O` (stereo not drawn) [Example 15, N-(4-Fluorobenzyl)-5-hydroxy-2-(4-hydroxytetrahydrofuran-3-yl)-1-methyl-6-oxo-1,6-dihydropyrimidine-4-carboxamide], the EC50 in assay [1] is 3 to 100 nM. Further, the half-maximal inhibitory concentration (IC50) at HIV-integrase was 2 to 100 nM.
The like results for `CSC1COCC1c1nc(C(=O)NCc2ccc(F)cc2)c(O)c(=O)n1C` (stereo not drawn) [Example 16, N-(4-Fluorobenzyl)-5-hydroxy-1-methyl-2-(4-(methylthio)tetrahydrofuran-3-yl)-6-oxo-1,6-dihydropyrimidine-4-carboxamide] were, in that order, 3 to 100 nM and 2 to 100 nM.
`Cn1c(C2CCOCC2)nc(C(=O)NCc2ccc(F)cc2)c(O)c1=O` [Example 17, N-(4-Fluorobenzyl)-5-hydroxy-1-methyl-6-oxo-2-(tetrahydro-2H-pyran-4-yl)-1,6-dihydropyrimidine-4-carboxamide]: the EC50 in assay [1] was in the range of 3 to 100 nM. This compound showed an IC50 on HIV-integrase of 2 to 100 nM.
Turning to `Cn1c(C2CCOCC2)nc(C(=O)NCc2ccc(F)cc2-n2cncn2)c(O)c1=O` [Example 18, N-(4-fluoro-2-(1H-1,2,4-triazol-1-yl)benzyl)-5-hydroxy-1-methyl-6-oxo-2-(tetrahydro-2H-pyran-4-yl)-1,6-dihydropyrimidine-4-carboxamide], the EC50 in assay [1] was in the range of 3 to 100 nM. Moreover, the inhibition constant (Ki) at purified integrase was in the range of 3 to 50 nM.
On to `Cc1ncnn1-c1cc(F)ccc1CNC(=O)c1nc(C2CCOCC2)n(C)c(=O)c1O` [Example 19, N-(4-fluoro-2-(5-methyl-1H-1,2,4-triazol-1-yl)benzyl)-5-hydroxy-1-methyl-6-oxo-2-(tetrahydro-2H-pyran-4-yl)-1,6-dihydropyrimidine-4-carboxamide], for which the EC50 in assay [1] lay within 3 to 100 nM. Also, on purified integrase, the inhibition constant Ki is 3 to 50 nM.
In the case of `Cc1cnnn1-c1cc(F)ccc1CNC(=O)c1nc(C2CCOCC2)n(C)c(=O)c1O` [Example 20, N-(4-fluoro-2-(5-methyl-1H-1,2,3-triazol-1-yl)benzyl)-5-hydroxy-1-methyl-6-oxo-2-(tetrahydro-2H-pyran-4-yl)-1,6-dihydropyrimidine-4-carboxamide], in assay [1], the EC50 was 3 to 100 nM. This compound also registered a Ki at purified integrase of 3 to 50 nM.
In the case of `Cn1ncnc1-c1cc(F)ccc1CNC(=O)c1nc(C2CCOCC2)n(C)c(=O)c1O` [Example 21, N-(4-fluoro-2-(1-methyl-1H-1,2,4-triazol-5-yl)benzyl)-5-hydroxy-1-methyl-6-oxo-2-(tetrahydro-2H-pyran-4-yl)-1,6-dihydropyrimidine-4-carboxamide], the EC50 in assay [1] was 3 to 100 nM. At purified integrase, the inhibition constant Ki fell in the range of 1 to 3 nM.
The corresponding values for `Cn1c(C2CCOCC2)nc(C(=O)NCc2ccc(F)cc2S(C)(=O)=O)c(O)c1=O` [Example 22, N-(4-fluoro-2-(methylsulfonyl)benzyl)-5-hydroxy-1-methyl-6-oxo-2-(tetrahydro-2H-pyran-4-yl)-1,6-dihydropyrimidine-4-carboxamide] are 3 to 100 nM and 3 to 50 nM.
In the case of `CN(C)S(=O)(=O)c1cc(F)ccc1CNC(=O)c1nc(C2CCOCC2)n(C)c(=O)c1O` [Example 23, N-(2-(N,N-dimethylsulfamoyl)-4-fluorobenzyl)-5-hydroxy-1-methyl-6-oxo-2-(tetrahydro-2H-pyran-4-yl)-1,6-dihydropyrimidine-4-carboxamide], the EC50 in assay [1] lay within 3 to 100 nM. Further, the inhibitory constant (Ki) on purified integrase was in the range of 3 to 50 nM.
The corresponding values for `Cn1c(C2CCOCC2)nc(C(=O)NCc2ccccc2N2CCCCS2(=O)=O)c(O)c1=O` [Example 25] are 3 to 100 nM and 3 to 50 nM.
The corresponding values for `Cn1cnnc1-c1cc(F)ccc1CNC(=O)c1nc(C2CCOCC2)n(C)c(=O)c1O` [Example 26, N-(4-fluoro-2-(4-methyl-4H-1,2,4-triazol-3-yl)benzyl)-5-hydroxy-1-methyl-6-oxo-2-(tetrahydro-2H-pyran-4-yl)-1,6-dihydropyrimidine-4-carboxamide] are 3 to 100 nM and 1 to 3 nM.

As a reminder, the IC50 is the midpoint of a concentration-inhibition curve. Low readings indicate inhibition by little substance, high ones a need for much substance. As usually defined, the Ki is a measure of affinity in units of concentration, obtained from inhibition or displacement. Read a high Ki as lower affinity.
